Legend:
[1] = molecular target: T1, Nuclear receptor subfamily 5 group A member 2 (Homo sapiens, UniProt O00482); experiment: Antagonist activity at human recombinant LRH-1 LBD ([…] to 541 residues)
[2] = molecular target: T1, Nuclear receptor subfamily 5 group A member 2; experiment: Antagonist activity at human LRH-1
[3] = molecular target: T1, Nuclear receptor subfamily 5 group A member 2; experiment: Inhibition of full length LRH1 in HEK293T cells at 550 nM incubated for 20 hrs by luciferase reporter assay relative to control; type: cell-based
[4] = molecular target: T1, Nuclear receptor subfamily 5 group A member 2; experiment: Inhibition of full length LRH1 transfected in HEK293T cells incubated for 20 hrs by luciferase reporter assay; type: cell-based
[5] = molecular target: T1, Nuclear receptor subfamily 5 group A member 2; experiment: Inhibition of full length LRH1 in HEK293T cells at 10 uM incubated for 20 hrs by luciferase reporter assay relative to control; type: cell-based

T1 sequence (O00482 whole entry, the tested form may be a part): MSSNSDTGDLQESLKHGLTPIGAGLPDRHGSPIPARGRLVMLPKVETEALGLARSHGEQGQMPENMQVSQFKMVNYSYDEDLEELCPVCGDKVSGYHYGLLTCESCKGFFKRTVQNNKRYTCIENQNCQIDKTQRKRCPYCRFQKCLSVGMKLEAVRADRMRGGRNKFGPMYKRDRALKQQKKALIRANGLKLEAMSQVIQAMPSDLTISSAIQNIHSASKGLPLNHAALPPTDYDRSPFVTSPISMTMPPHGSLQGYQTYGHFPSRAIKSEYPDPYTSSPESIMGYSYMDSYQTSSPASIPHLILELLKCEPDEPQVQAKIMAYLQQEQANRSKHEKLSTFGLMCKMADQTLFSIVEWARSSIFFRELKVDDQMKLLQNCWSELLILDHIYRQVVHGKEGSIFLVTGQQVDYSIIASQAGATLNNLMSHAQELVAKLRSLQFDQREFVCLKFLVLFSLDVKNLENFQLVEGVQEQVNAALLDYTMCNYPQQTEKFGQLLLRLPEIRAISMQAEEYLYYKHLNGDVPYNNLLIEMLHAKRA

IC50 [2] [µM]	IC50 [4] [µM]	SMILES	other results
		O=C(c1ccc(OCCN2CCCCC2)cc1)c1c(-c2ccc(O)cc2)sc2c(C(=O)c3ccc(OCCN4CCCCC4)cc3)c(O)ccc12	IC50 [1]: 3.1 µM
5		CC(=O)c1cccc(-c2cccc(-c3ccn(CCN4CCOCC4)n3)c2)c1	
	0.32	O=c1cc(N2CCN(c3cccc(C(F)(F)F)c3)CC2)[nH]c(=O)n1C1CCCCC1	inhibition [3]: 40%
6		Cc1nc(N(C)C)nc(-c2cccc(-c3ccn(CCN(C)C)n3)c2)c1C	
	3.7	O=c1cc(N2CCN(c3cccc(Cl)c3)CC2)[nH]c(=O)n1C1CCCCC1	inhibition [5]: 64%

Reference: ChEMBL document CHEMBL5226354, “The Medicinal Chemistry and Therapeutic Potential of LRH-1 Modulators” (J Med Chem, 2021)
